Article PMC8482806, “A Novel Blood-Brain Barrier-Permeable Chemotherapeutic Agent for the Treatment of Glioblastoma” (Cureus, 2021)

Key:
hLAT1 = biological target: T1, hLAT1 (Homo sapiens, UniProt Q01650); test: Substrate transport inhibition, [3H]-gabapentin uptake in LLC-PK1 cells expressing hLAT1; assay type: cell-based
T1 construct: host or cells: LLC-PK1 (tetracycline-inducible, Invitrogen Gateway pT-REx System)
Method: Substrate transport inhibition studies were conducted with LLC-PK1 cells inducibly expressing either hLAT1 or hLAT2. Cells were plated in growth media with 1 μg/mL doxycycline at 30,000 cells/well in 96-well plates. Sixteen hours after plating, cells were treated with butyrate at a final concentration of 5 mM. The following day, cells were washed with PBS and incubated in the presence or absence of various concentrations of QBS10072S with 30,000 cpm/well of either [3H]-gabapentin (LAT1) or [3H]-leucine (LAT2) in PBS for 15 minutes at room temperature. The non-specific cell-bound activity was determined by the addition of 5 mM unlabeled gabapentin (LAT1) or leucine (LAT2). Unincorporated radioactivity was removed, and cells were washed three times with ice-cold PBS. Cells were lysed by adding scintillation fluid to each well, and cell-associated radioactivity was determined via scintillation counting using a multichannel 96-well plate reader (MicroBeta Trilux, Perkin Elmer, Waltham, MA). Data were expressed as the percent of specific radioactivity uptake in wells with no compound added. LC50s were determined by non-linear curve-fitting using GraphPad Prism (San Diego, CA).

U87-MGMT cells = test: WST1 cell viability assay, U87-MGMT; assay type: cell-based; conditions: Homo sapiens, read-out: LC50 (μM ± SD)
Method: In vitro activities of QBS10072S and temozolomide (TMZ) in U87 and U87-MGMT cells were assessed using the WST1 cell viability assay in 96-well plates in which 500/well of cells were plated in sextuplets for each condition. To avoid cell loss, the following washing and medium removing procedures were all done using a P200 pipet without vacuum aspiration. For QBS10072S treatment, cells were washed with PBS the next day and incubated with 50 μL of various concentrations of QBS10072S in PBS for 1 hour at 37°C. After incubation, 150 μL of growth medium was added to each well. The medium was subsequently changed every two days until day 7. For TMZ treatment, cells were treated with 100 μL of various concentrations of TMZ in a growth medium for 2 days. After incubation, cells were put back in a normal growth medium and continued culturing for five days. In the end, 10 μL of WST1 reagent was added to each well and incubated at 37°C for 4h before subjecting to plate reading at 450 nm and 690nm using an EnSpire multimode plate reader (PerkinElmer). Background (OD690nm) was subtracted and data were normalized to the control. LC50s were determined by non-linear regression using GraphPad Prism (GraphPad Software Inc., San Diego, California)

DBTRG cells = test: Cell viability assay (CellTiter-Glo), DBTRG; assay type: cell-based; conditions: Homo sapiens; Cell Line: DBTRG; read-out: LC50 (μM ± SD)
Method: In vitro activity of QBS10072S was assessed using a modified clonogenic cell viability assay in 96-well clear-bottom plates. For the LLC-PK1 inducible LAT1-expressing cell line, 1000 cells/well were plated and cells were treated with either butyrate alone (non-induced) or with both butyrate and doxycycline (induced) as described above. For GBM cell lines, 2000 cells/well were plated. On day 2 (GBM) or day 3 (LLC-PK1) after original plating, cells were washed twice with PBS and incubated with 50 μL of various concentrations of QBS10072S in PBS in at least quadruplicate. After 30 minutes at 37°C, 200 μL of growth medium was added to each well. Clonal populations were allowed to grow until the control wells (mock treatment) were near confluence (7 to 10 days). At this point, 170 μL media were removed and 60 μL CellTiter-Glo® (Promega, Madison, WI) were added to each well. Plates were placed on an orbital shaker for three minutes to lyse the cells and then incubated for an additional 10 minutes at RT to stabilize the luminescent signal. Luminescence was recorded using an EnSpire® Multimode Plate Reader (Perkin Elmer). Background (luminescence from wells incubated with 100 μM melphalan or lomustine) was subtracted and data were normalized to the control. EC50s were determined by non-linear regression using GraphPad Prism.

[1] = tested on: LN229 intracerebral human GBM xenograft; test: LN229 intracerebral human GBM xenograft in athymic mice (BLI, survival); assay type: in vivo, mouse; conditions: for median survival time: vehicle 56; for %TGI: day 53, three doses
Method: Five-week-old female athymic mice (nu/nu, homozygous: Simonsen Laboratories, Gilroy, CA), housed under aseptic conditions, received intracranial tumor cell injection as previously described and as approved by the University of California San Francisco Institutional Animal Care and Use Committee, Protocol #: AN111064-03. Briefly, mice were anesthetized by intraperitoneal injection of ketamine (100 mg/kg) and xylazine (10 mg/kg) and injected with 3 μL of tumor cell suspension (300,000 cells total) into the right caudate-putamen. Coordinates: 3 mm to the right from bregma, on top of the coronal suture, and 3.5 mm depth. Injection rate: ~30 second/uL. For treatment studies, eight mice were used for each group for LN229 studies and nine mice per group for U251 studies. Treatments began when tumors entered the log-phase of growth as measured by luminescence, for the LN229 experiment on Day 21 and for U251 experiments on Day 14.
Dosing levels and frequency are described in the figure legends.
For bioluminescence imaging (BLI), mice were anesthetized as above, then administered 150 mg/kg of luciferin (D-luciferin potassium salt, Gold Biotechnology, St. Louis, MO) via intraperitoneal injection. Ten minutes after luciferin injection, mice were examined for tumor bioluminescence with an IVIS Lumina imaging station and Living Image software (Caliper Life Sciences, Alameda, CA), and regions of interest were recorded as photons per second per steradian per square cm.

[2] = Tolerability in non-tumor-bearing nude mice; assay type: in vivo, mouse; conditions: 5 or 10 mg/kg IV once a week for four weeks
Method: The tumor-suppressive activity of QBS10072S was evaluated in two orthotopic murine models of GBM using luciferase-expressing U251 and LN229 cell lines. Tumor volume was monitored by BLI measurement. The tolerability of QBS10072S was first tested by dosing 5 or 10 mg/kg IV once a week for four weeks into non-tumor-bearing nude mice (Figure 6). The body weights and white blood cell counts were not affected by this treatment, so QBS10072S was tested at various doses up to 10 mg/kg in the GBM models.
Figure 6 Tolerability of QBS10072S in nude mice Non-tumor-bearing nude mice were dosed IV with vehicle or QBS10072S (5 or 10 mg/kg) once a week for four weeks (arrows). Body weights were measured every three days and complete blood counts were determined once a week for seven weeks. A: Percent change in body weight over the course of the study, normalized to pre-dose weight. B: White blood cell (WBC) counts for each study arm. Horizontal bars represent the normal range of WBCs in these mice.

[3] = 2 mg/kg IV once every two weeks
[4] = 4 mg/kg IV once every two weeks
[5] = 8 mg/kg IV once every two weeks

T1 sequence (Q01650 whole entry): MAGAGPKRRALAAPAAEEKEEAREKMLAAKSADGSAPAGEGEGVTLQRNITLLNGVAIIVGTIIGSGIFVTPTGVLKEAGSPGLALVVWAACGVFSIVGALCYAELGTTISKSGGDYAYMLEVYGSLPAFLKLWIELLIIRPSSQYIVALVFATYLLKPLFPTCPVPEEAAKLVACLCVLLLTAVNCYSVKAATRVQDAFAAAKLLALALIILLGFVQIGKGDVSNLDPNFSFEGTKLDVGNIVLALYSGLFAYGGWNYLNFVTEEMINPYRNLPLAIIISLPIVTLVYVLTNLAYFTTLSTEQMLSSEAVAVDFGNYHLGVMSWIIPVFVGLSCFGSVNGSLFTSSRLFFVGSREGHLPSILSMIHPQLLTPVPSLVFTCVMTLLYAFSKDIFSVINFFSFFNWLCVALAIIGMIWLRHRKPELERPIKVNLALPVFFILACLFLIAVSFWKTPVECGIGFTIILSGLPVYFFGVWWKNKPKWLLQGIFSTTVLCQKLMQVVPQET
T1 sequence (P08195 102-630 partner): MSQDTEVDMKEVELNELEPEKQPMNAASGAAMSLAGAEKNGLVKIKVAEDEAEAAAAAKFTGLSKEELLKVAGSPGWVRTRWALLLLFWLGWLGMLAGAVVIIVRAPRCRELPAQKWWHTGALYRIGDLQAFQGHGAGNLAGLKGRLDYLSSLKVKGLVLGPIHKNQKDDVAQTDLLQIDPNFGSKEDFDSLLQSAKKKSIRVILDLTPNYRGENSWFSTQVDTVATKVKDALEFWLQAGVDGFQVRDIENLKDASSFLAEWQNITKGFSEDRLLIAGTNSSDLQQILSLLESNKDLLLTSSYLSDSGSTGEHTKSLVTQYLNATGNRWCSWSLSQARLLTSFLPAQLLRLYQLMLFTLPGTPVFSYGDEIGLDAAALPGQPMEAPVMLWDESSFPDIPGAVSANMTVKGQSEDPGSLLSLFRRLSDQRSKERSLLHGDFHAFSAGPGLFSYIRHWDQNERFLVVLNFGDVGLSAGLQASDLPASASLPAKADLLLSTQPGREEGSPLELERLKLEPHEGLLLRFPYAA

Compound: Cc1ccc(N(CCCl)CCCl)cc1C[C@H](N)CC(=O)O [QBS10072S, (+)-(3S)-amino-4-[5-[bis(2-chloroethyl)amino]-2-methyl-phenyl]butanoic acid]
- IC50 (hLAT1; [3H]-gabapentin, LLC-PK1 LAT1-expressing cells, 15 minutes at room temperature, read-out: IC50, inhibition of substrate transport (LAT1)): 21 µM
- selectivity LAT1 vs. LAT2 in transport assays (hLAT1; ratio of IC50s LAT2/LAT1): 50 fold
- CC50 (U87-MGMT cells): 12.8 ± 4.1 µM
- CC50 (DBTRG cells): 5 ± 2 µM
- median survival time [1, 3]: 66.5 days
- median survival time [1, 4]: 71 days
- median survival time [1, 5]: 74 days
- %TGI [1, 3]: 72%
- %TGI [1, 4]: 73%
- %TGI [1, 5]: 84%
- body weights [2]: not affected
- white blood cell counts [2]: not affected
